Patent US20230051589A1, “COMPOUNDS AND COMPOSITIONS FOR TREATING CONDITIONS ASSOCIATED WITH NLRP ACTIVITY” (Novartis AG, priority 2018, published 2023)

The compounds below were run on IL-1β production in PMA-differentiated THP-1 cells (assay: IL-1β production in PMA-differentiated THP-1 cells stimulated with gramicidin (hTHP-1 assay, 2% fetal bovine serum; Procedures 1-3)). Settings: Homo sapiens, THP-1, Table B3; hTHP-1 assay containing 2% fetal bovine serum, gramicidin stimulation, IL-1β readout; read-out: hTHP-1 IC50.
Type: cell-based, human
Outline: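 IL-1β released into supernatants was read by HTRF after 2 h gramicidin (5 μM) challenge. Before challenge, compounds (3-fold dilutions, top 100 μM, 0.37% DMSO) were given 1 h on THP-1 cells differentiated with PMA (20 ng/ml, 16-18 h) and held in 2% FBS medium.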

SMILES	IC50
CNC(c1ccc(S(N)(=O)=NC(=O)Nc2c3c(cc4c2CC4)CCC3)s1)C1CC1 (single isomer, unassigned) [Example 721, 5-((R) or (S)-cyclopropyl(methylamino)methyl)-N′-((2,4,5,6-tetrahydro-1H-cyclobuta[f]inden-3-yl)carbamoyl)thiophene-2-sulfonimidamide]	8 to 40 nM
NS(=O)(=NC(=O)Nc1c2c(cc3c1CC3)CCC2)c1cc2c(s1)CCNC2C(F)F (single isomer, unassigned) [Example 782, (S) or (R) -4-(difluoromethyl)-N′-((2,4,5,6-tetrahydro-1H-cyclobuta[f]inden-3-yl)carbamoyl)-4,5,6,7-tetrahydrothieno[3,2-c]pyridine-2-sulfonimidamide]	200 to 1000 nM

Same assay, conditions: Table B3; hTHP-1 assay containing 2% fetal bovine serum, gramicidin stimulation, IL-1β readout; read-out: hTHP-1 IC50

SMILES	IC50
NS(=O)(=NC(=O)Nc1c2c(cc3c1CC3)CCC2)c1cc2c(s1)CCNC2 (single isomer, unassigned) [Example 716]	8 to 40 nM
NS(=O)(=NC(=O)Nc1c2c(cc3c1CC3)CCC2)c1cc2c(s1)CCNC2 (single isomer, unassigned) [Example 717]	200 to 1000 nM
CNC(c1ccc(S(N)(=O)=NC(=O)Nc2c3c(cc4c2CC4)CCC3)s1)C1CC1 (single isomer, unassigned) [Example 720, 5-((S) or (R)-cyclopropyl(methylamino)methyl)-N′-((2,4,5,6-tetrahydro-1H-cyclobuta[f]inden-3-yl)carbamoyl)thiophene-2-sulfonimidamide]	8 to 40 nM
NS(=O)(=NC(=O)Nc1c2c(cc3c1CC3)CCC2)c1cc2c(s1)CCNC2C(F)F (single isomer, unassigned) [Example 783, (R) or (S) -4-(difluoromethyl)-N′-((2,4,5,6-tetrahydro-1H-cyclobuta[f]inden-3-yl)carbamoyl)-4,5,6,7-tetrahydrothieno[3,2-c]pyridine-2-sulfonimidamide]	200 to 1000 nM
NS(=O)(=NC(=O)Nc1c2c(cc3c1CCC3)CCC2)c1cc2c(s1)CCNC2 (single isomer, unassigned) [Example 787, (R) or (S)-N′-((1,2,3,5,6,7-hexahydro-s-indacen-4-yl)carbamoyl)-4,5,6,7-tetrahydrothieno[3,2-c]pyridine-2-sulfonimidamide]	40 to 200 nM
NS(=O)(=NC(=O)Nc1c2c(cc3c1CCC3)CCC2)c1cc2c(s1)CCNC2 (single isomer, unassigned) [Example 788, (S) or (R)-N′-((1,2,3,5,6,7-hexahydro-5-indacen-4-yl)carbamoyl)-4,5,6,7-tetrahydrothieno[3,2-c]pyridine-2-sulfonimidamide]	200 to 1000 nM
NS(=O)(=NC(=O)Nc1c2c(cc3c1CCC3)CCC2)c1cc2c(s1)CCOC2 (single isomer, unassigned) [Example 789, (R) or (S)-N′-((1,2,3,5,6,7-hexahydro-5-indacen-4-yl)carbamoyl)-6,7-dihydro-4H-thieno[3,2-c]pyran-2-sulfonimidamide]	200 to 1000 nM
NS(=O)(=NC(=O)Nc1c2c(cc3c1CCC3)CCC2)c1cc2c(s1)CCOC2 (single isomer, unassigned) [Example 790, (S) or (R)-N′-((1,2,3,5,6,7-hexahydro-s-indacen-4-yl)carbamoyl)-6,7-dihydro-4H-thieno[3,2-c]pyran-2-sulfonimidamide]	5000 to 30000 nM
CNS(=O)(=O)c1cccc(S(N)(=O)=NC(=O)Nc2c3c(cc4c2CCC4)CCC3)c1 (single isomer, unassigned) [Example 791, (R) or (S)-3-(N′-((1,2,3,5,6,7-hexahydro-5-indacen-4-yl)carbamoyl)sulfamidimidoyl)-N-methylbenzenesulfonamide]	200 to 1000 nM
CNS(=O)(=O)c1cccc(S(N)(=O)=NC(=O)Nc2c3c(cc4c2CCC4)CCC3)c1 (single isomer, unassigned) [Example 792, (S) or (R)-3-(N′-((1,2,3,5,6,7-hexahydro-s-indacen-4-yl)carbamoyl)sulfamidimidoyl)-N-methylbenzenesulfonamide]	1000 to 5000 nM
COCCOC[C@@](C)(O)c1ncc(S(N)(=O)=NC(=O)Nc2c3c(cc4c2CCC4)CCC3)s1 (single isomer, unassigned) [Example 793, (S) or (R)-N′-((1,2,3,5,6,7-hexahydro-s-indacen-4-yl)carbamoyl)-2-((R)-2-hydroxy-1-(2-methoxyethoxy)propan-2-yl)thiazole-5-sulfonimidamide]	1000 to 5000 nM
COCCOC[C@@](C)(O)c1ncc(S(N)(=O)=NC(=O)Nc2c3c(cc4c2CCC4)CCC3)s1 (single isomer, unassigned) [Example 794, (R) or (S)-N′-((1,2,3,5,6,7-hexahydro-s-indacen-4-yl)carbamoyl)-2-((R)-2-hydroxy-1-(2-methoxyethoxy)propan-2-yl)thiazole-5-sulfonimidamide]	8 to 40 nM
NS(=O)(=NC(=O)Nc1c2c(cc3c1CCC3)CCC2)c1sc(CNC2CCC2)cc1F (single isomer, unassigned) [Example 795, (R) or (S)-5-((cyclobutylamino)methyl)-3-fluoro-N′-((1,2,3,5,6,7-hexahydro-s-indacen-4-yl)carbamoyl)thiophene-2-sulfonimidamide]	200 to 1000 nM

Same assay, conditions: hTHP-1 assay containing 2% fetal bovine serum, Table B2, class symbols; read-out: IC50

SMILES	IC50
Cc1c(C2CC2)cc2c(c1NC(=O)N=S(N)(=O)c1sc(C(C)(C)O)cc1F)CCC2 (single isomer, unassigned) [Example 685, (R) or (S)-N′-((6-cyclopropyl-5-methyl-2,3-dihydro-1H-inden-4-yl)carbamoyl)-3-fluoro-5-(2-hydroxypropan-2-yl)thiophene-2-sulfonimidamide]	8 to 40 nM
Cc1c(C2CC2)cc2c(c1NC(=O)N=S(N)(=O)c1sc(C(C)(C)O)cc1F)CCC2 (single isomer, unassigned) [Example 686, (S) or (R)-N′-((6-cyclopropyl-5-methyl-2,3-dihydro-1H-inden-4-yl)carbamoyl)-3-fluoro-5-(2-hydroxypropan-2-yl)thiophene-2-sulfonimidamide]	1000 to 5000 nM
CN1CCc2sc(S(N)(=O)=NC(=O)Nc3c4c(cc5c3CCC5)CCC4)cc2C1 (single isomer, unassigned) [Example 687, (R) or (S)-N′-((1,2,3,5,6,7-hexahydro-s-indacen-4-yl)carbamoyl)-5-methyl-4,5,6,7-tetrahydrothieno [3,2-c]pyridine-2-sulfonimidamide]	40 to 200 nM
CN1CCc2sc(S(N)(=O)=NC(=O)Nc3c4c(cc5c3CCC5)CCC4)cc2C1 (single isomer, unassigned) [Example 688, (S) or (R)-N′-((1,2,3,5,6,7-hexahydro-s-indacen-4-yl)carbamoyl)-5-methyl-4,5,6,7-tetrahydrothieno [3,2-c]pyridine-2-sulfonimidamide]	1000 to 5000 nM
CNCc1csc(S(N)(=O)=NC(=O)Nc2c3c(cc4c2CCC4)CCC3)c1 (single isomer, unassigned) [Example 691, (R) or (S)-N′-((1,2,3,5,6,7-hexahydro-s-indacen-4-yl)carbamoyl)-4-((methylamino)methyl)thiophene-2-sulfonimidamide]	40 to 200 nM
CNCc1csc(S(N)(=O)=NC(=O)Nc2c3c(cc4c2CCC4)CCC3)c1 (single isomer, unassigned) [Example 692, (S) or (R)-N′-((1,2,3,5,6,7-hexahydro-s-indacen-4-yl)carbamoyl)-4-((methylamino)methyl)thiophene-2-sulfonimidamide]	1000 to 5000 nM
NS(=O)(=NC(=O)Nc1c2c(cc3c1CCC3)CCC2)c1cc2c(s1)COCC2 (single isomer, unassigned) [Example 693, (R) or (S)-N′-((1,2,3,5,6,7-hexahydro-s-indacen-4-yl)carbamoyl)-4,7-dihydro-5H-thieno[2,3-c]pyran-2-sulfonimidamide]	200 to 1000 nM
NS(=O)(=NC(=O)Nc1c2c(cc3c1CCC3)CCC2)c1cc2c(s1)COCC2 (single isomer, unassigned) [Example 694, (S) or (R)-N′-((1,2,3,5,6,7-hexahydro-s-indacen-4-yl)carbamoyl)-4,7-dihydro-5H-thieno[2,3-c]pyran-2-sulfonimidamide]	5000 to 30000 nM
CO[C@H]1COc2c(S(N)(=O)=NC(=O)Nc3c4c(cc5c3CCC5)CCC4)cnn2C1 (single isomer, unassigned) [Example 695, (R) or (S)-(6R)-N′-((1,2,3,5,6,7-hexahydro-s-indacen-4-yl)carbamoyl)-6-methoxy-6,7-dihydro-5H-pyrazolo[5,1-b][1,3]oxazine-3-sulfonimidamide]	40 to 200 nM
CO[C@H]1COc2c(S(N)(=O)=NC(=O)Nc3c4c(cc5c3CCC5)CCC4)cnn2C1 (single isomer, unassigned) [Example 696, (S) or (R)-(6R)-N′-((1,2,3,5,6,7-hexahydro-s-indacen-4-yl)carbamoyl)-6-methoxy-6,7-dihydro-5H-pyrazolo[5,1-b][1,3]oxazine-3-sulfonimidamide]	200 to 1000 nM
CN[C@H]1COc2c(S(N)(=O)=NC(=O)Nc3c4c(cc5c3CCC5)CCC4)cnn2C1 (single isomer, unassigned) [Example 697, (R) or (S)-(6R)-N′-((1,2,3,5,6,7-hexahydro-s-indacen-4-yl)carbamoyl)-6-(methylamino)-6,7-dihydro-5H-pyrazolo[5,1-b][1,3]oxazine-3-sulfonimidamide]	40 to 200 nM
CN[C@H]1COc2c(S(N)(=O)=NC(=O)Nc3c4c(cc5c3CCC5)CCC4)cnn2C1 (single isomer, unassigned) [Example 698, (S) or (R)-(6R)-N′-((1,2,3,5,6,7-hexahydro-s-indacen-4-yl)carbamoyl)-6-(methylamino)-6,7-dihydro-5H-pyrazolo[5,1-b][1,3]oxazine-3-sulfonimidamide]	1000 to 5000 nM
N=S(=O)(NC(=O)Nc1c2c(cc3c1CCC3)CCC2)c1nn(C(F)F)cc1F (single isomer, unassigned) [Example 710]	40 to 200 nM
N=S(=O)(NC(=O)Nc1c2c(cc3c1CCC3)CCC2)c1nn(C(F)F)cc1F (single isomer, unassigned) [Example 711]	1000 to 5000 nM
